Source: US8465912B2, “Methods for the identification of agents that inhibit mesenchymal-like tumor cells or their formation” (OSI Pharmaceuticals, LLC, priority 2009, dated 2013)

B1: OSM: Oncostatin M, commercial cytokine used at 100 ng/ml (protein, UniProt P13725 26-221, looked up)
Oncostatin-M: AAIGSCSKEYRVLLGQLQKQTDLMQDTSRLLDPYIRIQGLDVPKLREHCRERPGAFPSEETLRGLGRRGFLQTLNATLGCVLHRLADLEQRLPKAQDLERSGLNIEDLEKLQMARPNILGLRNNIYCMAQLLDNSDTAEPTKAGRGASQPPTPTPASDAFQRKLEGCRFLHGYHRFMHSVGRVFSKWGESPNRSRR

Experiments:
Type in all cases: cell-based, human
[1] = system: H1650 cells; assay: Doubling time of ligand-treated H1650 cells; details: 7 days ligand, doubling time over following two weeks, versus untreated
Experimental: (§1) The human cell line, H1650 was cultured in […] containing 10% FBS, 2 mM L-Glutamine, and 1 mM sodium pyruvate, at 37° C., 5% CO2. Growth factor and cytokine induced EMT was monitored over 7 days. Growth factor and cytokines were obtained from commercial sources and used as follows: HGF (Hepatocyte growth factor) at 100 ng/ml, EGF (Epidermal Growth Factor) at 100 ng/ml, OSM (Oncostatin M) at 100 ng/ml, TGFβ1 (Transforming growth factor, beta 1) at 10 ng/ml, and TNFα (Tumor necrosis factor alpha) at 25 ng/ml.
Cells were plated and treated with ligand for 7 days. On day 7, cells were counted and re-plated on 6 cm cell culture dishes. On days 3, 5, 7, 10 and 12, cells were trypsinized and counted to determine the total number of cells in the dish, in duplicate. Doubling time was calculated using the multiple time point method on the website www.doubling-time.com.

[2] = system: H1650 cells; assay: qPCR of EMT gene changes in response to ligand treatment; details: 7 days ligand, qPCR normalized to GAPDH and untreated control
Experimental: as §1
Cells were plated and treated with ligand for 7 days. At the time of harvest, cells were trypsinized and snap frozen for later use. Total RNA was isolated using RNAqueous-4 PCR Kit (Ambion, AM1914). Samples were DNase treated using the Turbo DNA-Free kit (Ambion, AM1907) and reverse transcribed using Superscript III (Invitrogen, 18080-044) for qPCR analysis. Taqman primers and Locked-Nucleic Acid probes were designed using ProbeFinder software (Universal Probe library, Roche). For mRNA analysis, real time PCR was performed using the ABI 7900HT series PCR machine. Thermocycle conditions were as follows: 50° C. for 2 minutes, 95° C. for 10 minutes, 95° C. for 15 seconds, 50° C. for 10 seconds, 60° C. for 1 minute. Data was collected over 45 cycles and then normalized to GAPDH and further normalized to the untreated control sample.

[3] = system: H1650 cells; assay: Induction of EMT by growth factors and cytokines in 2D culture (immunoblot, morphology, confocal); details: H1650 2D; for E-cadherin localization by confocal microscopy: 7 days ligand, untreated cells show membrane E-cadherin; for Induction of EMT (E-cadherin, vimentin, morphology): 7 days, HGF, EGF, OSM 100 ng/ml, TGFβ1 10 ng/ml, TNFα 25 ng/ml
Experimental: as §1
Cells were harvested by washing once with PBS, and lysing on ice for 10 minutes with scraping (using a Cell Lifter, Corning Inc. #3008) in ice cold RIPA buffer (Sigma R0278) containing Protease inhibitor (Sigma P8340), Phosphatase inhibitors (Sigma P2850, P5726) and 200 μM Sodium Vanadate. Supernatents were micro-centrifuged at max speed, 4° C. for 10 minutes. Protein content was quantitated using the BCA method (Pierce #23225) and samples were normalized to total protein in Laemli buffer and heated at 100° C. for 10 minutes. SDS PAGE was run using a Bis-Tris gel system (Invitrogen NuPAGE) with MOPS buffer (Invitrogen NP0001), transferred onto nitrocellulose using the iBLOT system (Invitrogen) and blocked in PBS-T (0.1% Tween 20), 5% non-fat milk or BSA in guidance with primary Ab supplier requirements. All primary antibodies were incubated overnight at 4° C. in PBS-T (0.1% Tween 20) in either 5% non-fat milk or BSA, diluted to the following working dilutions: anti E Cadherin (Santa Cruz #sc-21791) 1:500 dilution; anti Vimentin (BD Biosciences #550513) 1:2000 dilution;); 1:1000 dilution; anti β-Actin (Sigma, A5441) 1:10,000 dilution. Secondary HRP labeled antibodies used were: anti Rabbit IgG HRP (Amersham NA934) 1:5000 dilution; anti Mouse IgG HRP (Sigma A2304) 1:2000 dilution. Membranes were visualized using the Supersignal ELISA Femto Maximum Sensitivity Substrate (Pierce).
Cells were fixed in 4% paraformaldehyde (Electron Microscopy Sciences #15710)/PBS (Gibco#14190) for 10 minutes at room temperature, washed with PBS and permeabilized with 0.1% Triton X100 (Sigma P1379) in PBS for 10 minutes at room temp. Cells were blocked with 3% BSA/PBS for at least 15 minutes then incubated with primary antibody diluted in blocking buffer for a minimum of two hours at room temperature. Anti E-Cadherin was used at a 1:75 dilution and anti Vimentin (Millipore #AB5733) was used at a 1:2000 dilution. Cells were washed, incubated with fluorescently-labeled secondary antibodies for one hour, followed by a 5 minute TO-PRO3 nuclear counterstain (Invitrogen #T3605) at room temperature, washed and mounted on slides with Pro-Long Gold anti-fade reagent (Invitrogen #P36934). Secondary fluorescent antibodies used were: anti mouse 488 nm (Invitrogen #A11029) 1:600 dilution; anti chicken TRITC (Chemicon #AP194R) 1:50 dilution. Stained cells were captured on a Leica DMRXE microscope/SP2 scanner using Leica Confocal Software (LCS).
The ability of cell lines to undergo epithelial to mesenchymal transition (EMT) was investigated using different extracellular ligand drivers. A panel of NSCLC, pancreatic, and breast cancer cell lines were screened by treatment of cells for 7 days in presence of respective ligands, either singly or in combination. Initial screening determined the ability of the ligand to cause morphology change, to down-regulate the epithelial marker, E-cadherin or to up-regulate a mesenchymal marker such as vimentin. Potential EMT cell models should up-regulate a mesenchymal marker and display morphology change. More robust models would show a down-regulation of E-cadherin expression.

[4] = system: H1650 cells; assay: Pharmacological inhibition of ligand-induced EMT (Western blot, morphology); details: MEK inhibitor 1 1 μM, LY294002 10 μM, JAK inhibitor 1 0.25 μM
Experimental: Supernatents were micro-centrifuged at max speed, 4° C. for 10 minutes. […] SDS PAGE was run using a Bis-Tris gel system (Invitrogen NuPAGE) with MOPS buffer (Invitrogen NP0001), transferred onto nitrocellulose using the iBLOT system (Invitrogen) and blocked in PBS-T (0.1% Tween 20), 5% non-fat milk or BSA in guidance with primary Ab supplier requirements. […] Secondary HRP labeled antibodies used were: anti Rabbit IgG HRP (Amersham NA934) 1:5000 dilution; anti Mouse IgG HRP (Sigma A2304) 1:2000 dilution. Membranes were visualized using the Supersignal ELISA Femto Maximum Sensitivity Substrate (Pierce).
Cells were treated with inhibitor 30 minutes prior to ligand stimulation. Medium, inhibitor and ligand were refreshed on experimental day 3 to 4. Cells were photographed and lysed in RIPA buffer on day 7 for Western blotting.
To determine what signaling pathways are important for EMT in this model, cells were stimulated for 7 days with OSM, HGF+OSM or OSM+TGFβ in the presence of inhibitors to MEK, PI3K and JAK, since these pathways are established downstream effectors of these ligands. After 7 days, we photographed the cells to show morphology and harvested the cells to analyze markers by immunoblot (FIG. 6).

| Molecule | Change in doubling time [1] | ACTN1 gene change [2] | CDH1 gene change [2] | CDH2 gene change [2] | CLDN3 gene change [2] | ERBB3 gene change [2] | ITGB3 gene change [2] | MTA3 gene change [2] | OCLN gene change [2] | PLAUR gene change [2] | SNAI1 gene change [2] | SNAI2 gene change [2] [fold change] | SPARC gene change [2] | TJP3 gene change [2] | TWIST1 gene change [2] | VCAN gene change [2] [fold change] | VIM gene change [2] [fold change] | ZEB1 gene change [2] | ZEB2 gene change [2] | Induction of EMT (E-cadherin, vimentin, morphology) [3] | other results |
| --- | --- | --- | --- | --- | --- | --- | --- | --- | --- | --- | --- | --- | --- | --- | --- | --- | --- | --- | --- | --- | --- |
| HGF: Hepatocyte growth factor, commercial protein ligand used at 100 ng/ml to induce EMT in H1650 cells | modest decrease | NC (Fold changes less than 3 are reported as NC) | NC (Fold changes less than 3 are reported as NC) | NC (Fold changes less than 3 are reported as NC) | NC (Fold changes less than 3 are reported as NC) | NC (Fold changes less than 3 are reported as NC) | NC (Fold changes less than 3 are reported as NC) | NC (Fold changes less than 3 are reported as NC) | NC (Fold changes less than 3 are reported as NC) | NC (Fold changes less than 3 are reported as NC) | NC (Fold changes less than 3 are reported as NC) | 6.43 | NC (Fold changes less than 3 are reported as NC) | NC (Fold changes less than 3 are reported as NC) | NC (Fold changes less than 3 are reported as NC) | 6.71 | 4.92 | NC (Fold changes less than 3 are reported as NC) | NC (Fold changes less than 3 are reported as NC) | partial EMT | E-cadherin localization by confocal microscopy [3]: absence of E-cadherin or mislocalization of E-cadherin to the cytoplasm |
| CC(C)(C)c1nc2c3cc[nH]c(=O)c3c3cc(F)ccc3c2[nH]1 [JAK inhibitor 1] | – | – | – | – | – | – | – | – | – | – | – | – | – | – | – | – | – | – | – | – | Effect on HGF+OSM-induced EMT ([4]; 7 days HGF+OSM): partial; Effect on OSM+TGFβ-induced EMT ([4]; 7 days OSM+TGFβ): near complete block; Effect on OSM-induced EMT ([4]; 7 days OSM): near complete block; Effect on EMT in all three ligand models (OSM, HGF+OSM, OSM+TGFβ) ([4]; 7 days, immunoblot and morphology): blocked EMT to varying degrees |
| TNFα | – | – | – | – | – | – | – | – | – | – | – | – | – | – | – | – | – | – | – | do not stimulate EMT by themselves | – |
| TGFβ: Transforming growth factor, beta 1, used at 10 ng/ml | no effect | – | NC (Fold changes less than 3 are reported as NC) | NC (Fold changes less than 3 are reported as NC) | NC (Fold changes less than 3 are reported as NC) | NC (Fold changes less than 3 are reported as NC) | NC (Fold changes less than 3 are reported as NC) | NC (Fold changes less than 3 are reported as NC) | NC (Fold changes less than 3 are reported as NC) | NC (Fold changes less than 3 are reported as NC) | NC (Fold changes less than 3 are reported as NC) | 4.9 | NC (Fold changes less than 3 are reported as NC) | NC (Fold changes less than 3 are reported as NC) | NC (Fold changes less than 3 are reported as NC) | 5.04 | 3.99 | NC (Fold changes less than 3 are reported as NC) | NC (Fold changes less than 3 are reported as NC) | do not stimulate EMT by themselves | – |
| EGF: Epidermal Growth Factor, commercial protein ligand used at 100 ng/ml | – | – | – | – | – | – | – | – | – | – | – | – | – | – | – | – | – | – | – | partial EMT | E-cadherin localization by confocal microscopy [3]: absence of E-cadherin or mislocalization of E-cadherin to the cytoplasm |
| B1 | modest decrease | NC (Fold changes less than 3 are reported as NC) | NC (Fold changes less than 3 are reported as NC) | NC (Fold changes less than 3 are reported as NC) | NC (Fold changes less than 3 are reported as NC) | NC (Fold changes less than 3 are reported as NC) | 13.25 fold change | NC (Fold changes less than 3 are reported as NC) | NC (Fold changes less than 3 are reported as NC) | NC (Fold changes less than 3 are reported as NC) | NC (Fold changes less than 3 are reported as NC) | 3.44 | NC (Fold changes less than 3 are reported as NC) | NC (Fold changes less than 3 are reported as NC) | NC (Fold changes less than 3 are reported as NC) | 3.88 | 4.18 | 3.15 fold change | 4.43 fold change | do not stimulate EMT by themselves | – |
